Reference: patent publication US4996227A, “3-(heteroarylalkyene)- and 3-(arylalkylene)-2,4(3H,5H)-heterocyclic diones as cancer chemotherapy drugs” (priority 1989, dated 1991)
Read-outs that look alike come from different tables or passages of the source.

How the values were obtained:
human tumor H5315 BREAST = assay: Human Tumor Stem Cell Assay, colony growth after one hour exposure; format: cell-based; conditions: LO: furandione 0.2 mcg/ml; standard drugs 10% of peak plasma concentration; 1 h
Source text: (§1) The in vitro Human Tumor Stem Cell Assay procedure described as follows has several advantages for testing the effectiveness of chemotherapy drugs such as the 3-(heteroarylalkylene)-2,4(3H,5H)-furandiones. The first advantage is that fresh tumor cells from a variety of tumor types were used rather than a small number of cell lines which have undergone severe selection pressures as they are passed in vitro. The second advantage is that only the anchorage-independent tumor cells will form colonies in soft agar so that any non-malignant cells present in the sample will not form colonies. Perhaps the most important advantage, however, is the emphasis on cells which have the ability to form colonies. These cells, which are generally called stem cells, usually comprise only a small percentage of all tumor cells. They are thought to be the most important cells for growth and distant spread of a tumor. In particular, these cells have the potential to leave the primary tumor and form new tumors at distant sites (called metastases). It is the effectiveness against these very important stem cells that the Human Tumor Stem Cell Assay measures.
(§2) One of the 3-(heteroarylalkylene)-2,4(3H,5H)-furandione compounds, 3-[(5-methyl-2-thienyl) methylene]-2,4(3H,5H)-furandione was evaluated against a series of 10 human tumors in the in vitro Human Tumor Cell Assay, along with conventional and standard chemotherapy agents.
(§3) In the procedure, a single cell suspension was prepared from tumors excised from patients during therapeutic or diagnostic surgical procedures. The human tumor cells were exposed to known anticancer drugs or to [(5-methyl-2-thienyl)methylene]-2,4 (3H, 5H)-furandione at a low (0.2 mcg/ml) or a high (1.0 mcg/ml) concentration for one hour. […] The suspension was washed with tissue culture medium to remove the drug.
(§4) The suspension was then cultured in a double soft agar suspension. Control cells which had been treated identically, except for exposure to the drugs, were also cultured. After one to two weeks, both the tumor cells and the control cells formed colonies in the soft agar which were enumerated under a microscope. The number of colonies grown from the drug-treated cells was compared to the number of colonies grown from the control cells, and the percentage growth after exposure to the drug was calculated.
(§5) The results are illustrated in Table 1, wherein the various numbers indicate the percentage of growth. For example, a small number like 6 means that the number of colonies is only 6% of the number without addition of the compound. On the other hand, a large number like 120 means that the number of colonies is 20% greater with the compound than without.
(§6) Of the nine tumors for which the higher concentration (1.0 mcg/ml) of the furandione was used, five gave inhibition of colony growth corresponding to borderline sensitive (30-50% growth) and four gave inhibition corresponding to sensitivity (0-30% growth). Clinical drugs are normally tested at 10% of their peak plasma concentration. For the standard chemotherapy drugs shown in Table 1, the low concentration (LO) corresponds to this 10% level, and the high concentration (HI) is at 50% of the peak plasma concentration. Of the same nine tumors, only two would have been rated as sensitive or borderline sensitive to any of the other clinical drugs tested.

human tumor H5318 OVARY = assay: as above; format: cell-based; conditions: HI: furandione 1.0 mcg/ml; standard drugs 50% of peak plasma concentration; 1 h
Source text: as §1, §2, §3, §4, §5, §6

human tumor H5319 BREAST = assay: as above; format: cell-based; conditions: 1 h
Source text: as §1, §2, §3, §4, §5, §6

[1] = system: human tumor H5322 STOMACH; assay: as above; format: cell-based; conditions: 1 h
Source text: as §1, §2, §3, §4, §5, §6

[2] = system: human tumor H5325 SARCOMA; assay: as above; format: cell-based; conditions: 1 h
Source text: as §1, §2, §3, §4, §5, §6

human tumor H5330 THYMUS = assay: as above; format: cell-based; conditions: 1 h
Source text: as §1, §2, §3, §4, §5, §6

human tumor H5331 OVARY = assay: as above; format: cell-based; conditions: 1 h
Source text: as §1, §2, §3, §4, §5, §6

human tumor H5337 COLON = assay: as above; format: cell-based; conditions: 1 h
Source text: as §1, §2, §3, §4, §5, §6

human tumor H5349 BREAST = assay: as above; format: cell-based; conditions: 1 h
Source text: as §1, §2, §3, §4, §5, §6

human tumors = assay: Human Tumor Stem Cell Assay, summary over the tumor panel; format: cell-based; conditions: for activity at 1 µg/mL: Homo sapiens, 1.0 mcg/ml, 1 h
Source text: as §1, §2, §3, §4
as §5, with “without. […]” for “without.”

healthy mice = assay: Toxicology testing in healthy mice: hematology; format: in vivo; conditions: for Absolute Neutrophils / Hemoglobin / WBC: i.p.
Description: The purpose of this example was to determine approximate toxicity of the compound 3[(5-methyl-2-thienyl) methylene]-2,4(3H,5H)-furandione in healthy mice. The in vivo concentrations employed in the example were selected by using the in vitro results in the Human Tumor Stem Cell Assay as a guide. The compound was given to the mice by means of intra-peritoneal injection. In addition to a control group which was injected with the appropriate carrier solution without drug, three test groups with calculated plasma concentrations of 1, 10 and 100 mcg/ml (low, medium and high concentrations) were prepared. Based upon the results from Table 1, the three test groups represent low, medium and high concentrations of drug dosages. The highest concentration of 100 mcg/ml is about 10 times the predicted effective dose (in vivo) of tumoricidal activity. Each group contained eight animals. Blood was extracted from four animals in each group two days after the intraperitoneal injection and routine hematology (i.e., a hemoglobin concentration, a white blood cell count, and a neutrophil count) procedures were performed.
Half of the animals in each group were sacrificed after one week (Day 7), and the remaining animals in each group were sacrificed after two weeks (Day 14). Routine hematology was performed at the time of sacrifice.

[3] = HI: furandione 1.0 mcg/ml, standard drugs 50% of peak plasma concentration
[4] = LO: furandione 0.2 mcg/ml, standard drugs 10% of peak plasma concentration
[5] = high, 100 mcg/ml calculated plasma, Day 2
[6] = high, 100 mcg/ml calculated plasma, Day 7
[7] = high, 100 mcg/ml calculated plasma, Day 14
[8] = low, 1 mcg/ml calculated plasma, Day 2
[9] = low, 1 mcg/ml calculated plasma, Day 7
[10] = low, 1 mcg/ml calculated plasma, Day 14
[11] = medium, 10 mcg/ml calculated plasma, Day 2
[12] = medium, 10 mcg/ml calculated plasma, Day 7
[13] = medium, 10 mcg/ml calculated plasma, Day 14

Cc1ccc(C=C2C(=O)COC2=O)s1 [Compound 4, 3[(5-methyl-2-thienyl)methylene]2,4(3H,5H)-furandione]
percentage of growth (colonies vs control) (human tumor H5315 BREAST): 62% | percentage of growth (colonies vs control) (human tumor H5318 OVARY): 29% | percentage of growth (colonies vs control) (human tumor H5319 BREAST; [3]): 6% | percentage of growth (colonies vs control) (human tumor H5319 BREAST; [4]): 210% | percentage of growth (colonies vs control) [1, 3]: 36% | percentage of growth (colonies vs control) [1, 4]: 68% | percentage of growth (colonies vs control) [2, 3]: 22% | percentage of growth (colonies vs control) [2, 4]: 44% | percentage of growth (colonies vs control) (human tumor H5330 THYMUS; [3]): 38% | percentage of growth (colonies vs control) (human tumor H5330 THYMUS; [4]): 79% | percentage of growth (colonies vs control) (human tumor H5331 OVARY; [3]): 48% | percentage of growth (colonies vs control) (human tumor H5331 OVARY; [4]): 64% | percentage of growth (colonies vs control) (human tumor H5337 COLON; [3]): 36% | percentage of growth (colonies vs control) (human tumor H5337 COLON; [4]): 58% | percentage of growth (colonies vs control) (human tumor H5349 BREAST; [3]): 9% | percentage of growth (colonies vs control) (human tumor H5349 BREAST; [4]): 82% | activity at 1 µg/mL (human tumors; five of nine tumors, read-out: growth, borderline sensitive tumors): 30 to 50% | activity at 1 µg/mL (human tumors; four of nine tumors, read-out: growth, sensitive tumors): 0 to 30% | peak plasma concentration at which compound should be effective in vivo (human tumors; by analogy with other chemotherapy drugs): 10 µg/mL | activity against human solid tumors in vitro (human tumors; one hour exposure, 1 mcg/ml): extremely active against a wide variety of human solid tumors in vitro | absolute neutrophil count, change (healthy mice; after one week): significant decrease in the absolute neutrophil count after one week, indicating suppression of bone marrow | total white blood cell count, change (healthy mice; all groups): slightly decreased from Day 2 to Day 7, the count increased in all groups from Day 7 to Day 14 | hemoglobin levels, change (healthy mice; all test groups, 14-day test period): no significant decreases in hemoglobin levels | myelosuppression in vivo (healthy mice; at drug level predicted by the in vitro assay): some myelosuppression in vivo | platelet count, change (healthy mice; blood smears): platelet count was not significantly decreased | Absolute Neutrophils (healthy mice; [5]): 5224 cells/ul | Hemoglobin (healthy mice; [5]): 13.2 g/100 ml | WBC (healthy mice; [5]): 9594 Cells/ul | Hemoglobin (healthy mice; [6]): 13.6 g/100 ml | WBC (healthy mice; [6]): 5775 Cells/ul | Absolute Neutrophils (healthy mice; high, 100 mcg/ml calculated plasma, Day 7 (text SD=622), 4 (3H, 5H) FURANDIONE): 1167 cells/ul | Absolute Neutrophils (healthy mice; high, 100 mcg/ml calculated plasma, Day 7 (text SD=622), listed as tested furandione compound): 1,167 cells/ul | Absolute Neutrophils (healthy mice; [7]): 2025 cells/ul | Hemoglobin (healthy mice; [7]): 13.9 g/100 ml | WBC (healthy mice; [7]): 12,175 Cells/ul | Absolute Neutrophils (healthy mice; [8]): 2869 cells/ul | Hemoglobin (healthy mice; [8]): 13.7 g/100 ml | WBC (healthy mice; [8]): 7000 Cells/ul | Hemoglobin (healthy mice; [9]): 14.25 g/100 ml | WBC (healthy mice; [9]): 6562 Cells/ul | Absolute Neutrophils (healthy mice; low, 1 mcg/ml calculated plasma, Day 7 (text SD=942), 4 (3H, 5H) FURANDIONE): 1731 cells/ul | Absolute Neutrophils (healthy mice; low, 1 mcg/ml calculated plasma, Day 7 (text SD=942), listed as tested furandione compound): 1,731 cells/ul | Hemoglobin (healthy mice; [10]): 13.6 g/100 ml | WBC (healthy mice; [10]): 9675 Cells/ul | Absolute Neutrophils (healthy mice; low, 1 mcg/ml calculated plasma, Day 14, three animals): 2183 cells/ul | neutrophil difference vs control (healthy mice; low, 1 mcg/ml, Day 7): no significant difference between the control and the low concentration group | Absolute Neutrophils (healthy mice; [11]): 3946 cells/ul | Hemoglobin (healthy mice; [11]): 13.6 g/100 ml | WBC (healthy mice; [11]): 7787 Cells/ul | Hemoglobin (healthy mice; [12]): 13.9 g/100 ml | WBC (healthy mice; [12]): 5812 Cells/ul | Absolute Neutrophils (healthy mice; medium, 10 mcg/ml calculated plasma, Day 7 (text SD=492), 4 (3H, 5H) FURANDIONE): 1009 cells/ul | Absolute Neutrophils (healthy mice; medium, 10 mcg/ml calculated plasma, Day 7 (text SD=492), listed as tested furandione compound): 1,009 cells/ul | Hemoglobin (healthy mice; [13]): 13.6 g/100 ml | WBC (healthy mice; [13]): 8700 Cells/ul | Absolute Neutrophils (healthy mice; medium, 10 mcg/ml calculated plasma, Day 14, three animals): 1256 cells/ul | P, neutrophil difference vs control (healthy mice; medium, 10 mcg/ml, Day 7): < 0.05
